Where two headings read alike, the source gives them in different places.

The target of assay [1] is T1, KRAS (WT) (Homo sapiens, UniProt P01116).
T1 construct: Biotinylated KRAS protein amino acids 1-169 (produced at Erasca); made in house
Kind of assay: In-vitro RAS-RAF binding assay (RRB), HTRF/FRET. The class given is biochemical. The settings on record: read-out: Inhibition of RAS-RAF Binding (in-vitro) KRAS (WT) IC50. Put shortly: (§1)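 Biotinylated KRAS 1-169 (streptavidin-terbium donor, 30 nM) and GST-cRAF RBD (anti-GST d2 acceptor, 30 nM) in HEPES pH 7.5, NaCl, MgCl2, DTT buffer. After compound incubation, SOS1 catalytic domain plus GTPgS drive 60 min nucleotide exchange. HTRF FRET read at equilibrium, in duplicate.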

The target in assay [2] is T2, KRas G12D fused to HiBiT peptide (Homo sapiens, UniProt P01116, G12D).
T2 construct: endogenous in cells; host or cells: AsPC-1 HiBiT knock-in single clone (Cas9 RNP + ssODN)
T2 sequence (P01116 1-188 isoform P01116-2 G12D): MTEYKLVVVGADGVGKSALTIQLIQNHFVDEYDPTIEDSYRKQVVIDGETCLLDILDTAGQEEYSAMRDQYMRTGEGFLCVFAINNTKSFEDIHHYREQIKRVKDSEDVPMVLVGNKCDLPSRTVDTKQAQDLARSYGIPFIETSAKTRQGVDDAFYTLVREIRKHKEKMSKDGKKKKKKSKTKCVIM
Kind of assay: ASPC-1 HiBit assay to determine G12D degradation. The settings on record: AsPC-1 HiBiT cells, 24-hour incubation; read-out: ASPC-1 HiBit DC50 (C). The class given is cell-based. As to the method:
Compounds presented herein induce degradation of the KRas G12D (KRasG12D) upon treatment of engineered cancer cell line.
The degradation of the KRasG12D in cellular environment was measured using engineered homozygous KRasG12D AsPC-1 cell line in which KRas G12D was fused to luminescent HiBiT peptide at the N-terminal. The small (1.3 kDa) HiBiT peptide complements with high affinity to a larger (18 kDa) subunit evolved from NanoLuc (termed LgBiT). The resulting complex (i.e., reconstituted luciferase enzyme) generates bright luminescence that translates to high sensitivity (1 amol), broad dynamic range (four orders of magnitude), and rapid kinetics for real time quantitation.
To generate HiBit KRasG12D knock-in cell line, sgRNA (SEQ. ID NO: 1) and ssODN (SEQ. ID NO: 2) were designed and synthesized at GenScript.
RNP complex was generated by mixing of 100 pmol of Cas9 protein to PCR tubes containing 300 pmol sgRNA incubating the resultant complex at room temperature for 20 min. […] ssODN was added to RNP complex slowly and RNP-ssODN complex was incubated at room temperature for 10 min. RNP-ssODN complex was mixed with […] of AsPC-1 cells (1×10^6 cells total) and electroporated using Nucleofactor (Program CM-150). Cells were then incubated at ambient temperature for 5 min and transferred to a six-well plate containing 2 ml growth medium.
To select pools with the highest luminescence signal, 10^4 cells of parental AsPC-1 and transfected pools were plated in solid white 384-well tissue culture plates. 24 hours after seeding, HiBiT was detected using the Nano-Glo HiBiT Lytic Detection System (Promega) following manufacturer's instructions. Briefly, […] of Nano-Glo HiBiT Lytic Detection Reagent was added directly to the cells and mixed by inversion before recording luminescence on an Envision (Perkin-Elmer) with 0.5 s integration time.
Single clones were isolated from stable pool by limited dilution method and presence of HiBiT knock-in was verified by TA cloning and subsequent sequencing. Additionally, western blotting analysis was conducted to confirm selection of single clones with high luminescence signal.
For DC50S measurements, AsPC-1 HiBiT single clone cells were grown in RPMI 1640 medium (Invitrogen 22400-089) supplemented with 10% fetal bovine serum. Cells were seeded in 384-well tissue culture plates at a density of 7,000 cells/well and allowed to attach for 24 hours.
Test compounds were distributed directly into assay plate with the adjustment for DMSO concentration using Tecan HP D300e. For most of the experiments, the final concentration of compounds starts from 10 μM, 3-fold dilution dose response and 10 doses. […] DMSO final concentration is 1%. Each concentration of exemplary compound was tested as singleton. The negative control wells were cells with DMSO only, and the positive control wells were cells with […] inhibitor.
Following 24-hour incubation with the compounds plate and Nano-Glo® HiBiT Lytic reagents were equilibrated to room temperature. 20 μL of HiBiT Lytic reagent were added to each well. The assay plate was incubated on digital microplate shaker (350 rpm) for 20 min followed by centrifugation at 500 g for 1 min. Luminescence was recorded using Envision (Perkin-Elmer) using aperture 384-L1 with 0.1 s integration time.
HiBiT signal are used to calculate the % degradation at given compound concentration using the following formula:
% Degradation=(1−(Sample HiBiT signal−Ave Min signal)/(Ave Max signal−Ave Min signal))*100%
For DC50 calculation, the data with the hook effect were removed first and DC50S was reported using a 4-parameter fit of dose response curve using GraphPad in those cases where maximum % degradation was >50% and Minimal % degradation was <50%. The decrease in DC50 reflects that the exemplary compound led to a higher level of degradation of KRasG12D than another exemplary compound at specific timepoint of treatment of cancer cell line. […]
In general terms: HiBiT is a short tag that completes a luciferase, so light tracks the accessible tagged protein.

Assay [3] concerns the target KRAS G12D (Homo sapiens, UniProt P01116, G12D). Briefly: In-vitro RAS-RAF binding assay (RRB), HTRF/FRET. The class given is biochemical. More on the design: Biotinylated KRAS protein amino acids 1-169 (produced at Erasca); made in house. The settings on record: read-out: Inhibition of RAS-RAF Binding (in-vitro) KRAS (G12D) IC50. Put shortly:
as §1
On the technique in general: In TR-FRET formats the signal depends on donor and acceptor labels being close together.

The mark [4] stands for this setting: Table 2, average of multiple runs of each compound.

Sequence of KRAS G12D (P01116 1-169 isoform P01116-2 G12D): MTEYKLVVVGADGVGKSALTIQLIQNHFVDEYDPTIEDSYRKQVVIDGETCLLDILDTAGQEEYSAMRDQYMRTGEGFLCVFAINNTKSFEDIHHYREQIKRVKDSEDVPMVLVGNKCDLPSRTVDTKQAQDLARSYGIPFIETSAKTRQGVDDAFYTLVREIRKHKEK
T1 sequence (P01116 1-169 isoform P01116-2): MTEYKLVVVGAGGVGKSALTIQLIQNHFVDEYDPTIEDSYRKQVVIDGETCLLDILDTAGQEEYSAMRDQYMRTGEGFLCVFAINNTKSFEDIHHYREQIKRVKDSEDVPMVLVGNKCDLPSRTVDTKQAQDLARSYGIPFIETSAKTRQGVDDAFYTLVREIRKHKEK

For `C#Cc1c(F)ccc2cc(O)cc(-c3ncc4c(N5CC6CCC(C5)N6)nc(OCCN5CCC(COc6cc([C@H](C(=O)N7C[C@H](O)C[C@H]7C(=O)N[C@@H](C)c7ccc(-c8c(F)cccc8F)cc7)C(C)C)on6)CC5)nc4c3F)c12` [Example 15, (2S,4R)-1-((2R)-2-(3-((1-(2-((4-(3,8-diazabicyclo[3.2.1]octan-3-yl)-7-(8-ethynyl-7-fluoro-3-hydroxynaphthalen-1-yl)-8-fluoropyrido[4,3-d]pyrimidin-2-yl)oxy)ethyl)piperidin-4-yl)methoxy)isoxazol-5-yl)-3-methylbutanoyl)-N—((S)-1-(2′,6′-difluoro-[1,1′-biphenyl]-4-yl)ethyl)-4-hydroxypyrrolidine-2-carboxamide], the half-inhibitory concentration (IC50) came to 1320 nM in assay [1] (setting [4]) and 12.7 nM in assay [3] (setting [4]). Besides, the DC50 in assay [2] stood at 112 nM.

As to `C#Cc1c(F)ccc2cc(O)cc(-c3ncc4c(N5CC6CCC(C5)N6)nc(OC[C@@H]5CCCN5CCCOCCC(=O)N[C@H](C(=O)N5C[C@H](O)C[C@H]5C(=O)N[C@@H](C)c5ccc(-c6scnc6C)cc5)C(C)(C)C)nc4c3F)c12` [Example 13, (2S,4R)-1-[(2S)-2-[3-[3-[(2S)-2-[[4-(3,8-diazabicyclo[3.2.1]octan-3-yl)-7-(8-ethynyl-7-fluoro-3-hydroxy-1-naphthyl)-8-fluoro-pyrido[4,3-d]pyrimidin-2-yl]oxymethyl]pyrrolidin-1-yl]propoxy]propanoylamino]-3,3-dimethyl-butanoyl]-4-hydroxy-N-[(1S)-1-[4-(4-methylthiazol-5-yl)phenyl]ethyl]pyrrolidine-2-carboxamide], the IC50 in assay [1] (Table 1) is 49 nM; in assay [1] (setting [4]), 49.1 nM; in assay [3] (Table 1), 13.6 nM; in assay [3] (setting [4]) it was 13.6 nM. The DC50 in assay [2] was 444 nM.

As for `C#Cc1c(F)ccc2cc(O)cc(-c3ncc4c(N5CC6CCC(C5)N6)nc(OCCN5CCC(COc6cc([C@H](C(=O)N7C[C@H](O)C[C@H]7C(=O)N[C@@H](C)c7ccc(-c8scnc8C)cc7)C(C)C)on6)CC5)nc4c3F)c12` [Example 60, (2S,4R)-1-((2R)-2-(3-((1-(2-((4-(3,8-diazabicyclo[3.2.1]octan-3-yl)-7-(8-ethynyl-7-fluoro-3-hydroxynaphthalen-1-yl)-8-fluoropyrido[4,3-d]pyrimidin-2-yl)oxy)ethyl)piperidin-4-yl)methoxy)isoxazol-5-yl)-3-methylbutanoyl)-4-hydroxy-N-((S)-1-(4-(4-methylthiazol-5-yl)phenyl)ethyl)pyrrolidine-2-carboxamide], the IC50 is 188 nM in assay [1] (setting [4]) and 9.55 nM in assay [3] (setting [4]). Besides, in assay [2], the DC50 is 108 nM.

As for `CC(C)[C@@H](C(=O)N1C[C@H](O)C[C@H]1C(=O)N[C@@H](C)c1ccc(-c2c(F)cccc2F)cc1)c1cc(OCC2(C)CCN(CCOc3nc(N4CC5CCC(C4)N5)c4cc(C(F)(F)F)c(-c5ccc(F)c6sc(N)c(C#N)c56)c(F)c4n3)CC2)no1` [Example 74, (2S,4R)-1-((2R)-2-(3-((1-(2-((7-(2-amino-3-cyano-7-fluorobenzo[b]thiophen-4-yl)-4-(3,8-diazabicyclo[3.2.1]octan-3-yl)-8-fluoro-6-(trifluoromethyl)quinazolin-2-yl)oxy)ethyl)-4-methylpiperidin-4-yl)methoxy)isoxazol-5-yl)-3-methylbutanoyl)-N-((S)-1-(2′,6′-difluoro-[1,1′-biphenyl]-4-yl)ethyl)-4-hydroxypyrrolidine-2-carboxamide], the values for the 50% inhibitory concentration (IC50) in assay [1] (setting [4]) and in assay [3] (setting [4]) were 962 nM and 18.1 nM, respectively. Besides, the DC50 in assay [2] came out at 185 nM.

As to `C[C@H](NC(=O)[C@@H]1C[C@@H](O)CN1C(=O)[C@@H](NC(=O)CCOCCCN1CCCC1COc1nc(N2CC3CCC(C2)N3)c2cc(Cl)c(-c3ccc(F)c4sc(N)c(C#N)c34)c(F)c2n1)C(C)(C)C)c1ccc(-c2c(F)cccc2F)cc1` (stereo partly drawn) [Example 12, (2S,4R)-1-[(2S)-2-[3-[3-[2-[[7-(2-amino-3-cyano-7-fluoro-benzothiophen-4-yl)-6-chloro-4-(3,8-diazabicyclo[3.2.1]octan-3-yl)-8-fluoro-quinazolin-2-yl]oxymethyl]pyrrolidin-1-yl]propoxy]propanoylamino]-3,3-dimethyl-butanoyl]-N-[(1S)-1-[4-(2,6-difluorophenyl)phenyl]ethyl]-4-hydroxy-pyrrolidine-2-carboxamide], the half-inhibitory concentration (IC50) in assay [1] (Table 1) is 86.8 nM; in assay [1] (setting [4]), 86.8 nM; in assay [3] (Table 1), 11.3 nM; in assay [3] (setting [4]), 11.2 nM. The DC50 in assay [2] was 77.5 nM.

Consider `CC(C)[C@@H](C(=O)N1C[C@H](O)C[C@H]1C(=O)N[C@@H](C)c1ccc(-c2c(F)cccc2F)cc1)c1cc(OCC2(F)CCN(CCOc3nc(N4CC5CCC(C4)N5)c4cc(Cl)c(-c5ccc(F)c6sc(N)c(C#N)c56)c(F)c4n3)CC2)no1` [Example 73, (2S,4R)-1-((2R)-2-(3-((1-(2-((7-(2-amino-3-cyano-7-fluorobenzo[b]thiophen-4-yl)-4-(3,8-diazabicyclo[3.2.1]octan-3-yl)-6-chloro-8-fluoroquinazolin-2-yl)oxy)ethyl)-4-fluoropiperidin-4-yl)methoxy)isoxazol-5-yl)-3-methylbutanoyl)-N-((S)-1-(2′,6′-difluoro-[1,1′-biphenyl]-4-yl)ethyl)-4-hydroxypyrrolidine-2-carboxamide], for which the IC50 in assay [1] (setting [4]) is more than 10000 nM; in assay [3] (setting [4]), 47.6 nM. In addition, the 50% degradation concentration (DC50) in assay [2] was 349 nM.

Regarding `C[C@H](NC(=O)[C@@H]1C[C@@H](O)CN1C(=O)[C@@H](NC(=O)CCOCCCN1CCC[C@H]1COc1nc(N2CC3CCC(C2)N3)c2cc(C(F)(F)F)c(-c3ccc(F)c4sc(N)c(C#N)c34)c(F)c2n1)C(C)(C)C)c1ccc(-c2ccccc2Cl)cc1` [Example 95, (2S,4R)-1-((2S)-2-(3-(3-((2S)-2-((((7S)-7-(2-amino-3-cyano-7-fluorobenzo [b]thiophen-4-yl)-4-(3,8-diazabicyclo [3.2.1]octan-3-yl)-8-fluoro-6-(trifluoromethyl)quinazolin-2-yl)oxy)methyl)pyrrolidin-1-yl)propoxy)propanamido)-3,3-dimethylbutanoyl)-N—((S)-1-(2′-chloro-[1,1′-biphenyl]-4-yl)ethyl)-4-hydroxypyrrolidine-2-carboxamide], the IC50 was 65 nM in assay [1] (setting [4]) and 8.5 nM in assay [3] (setting [4]). Moreover, in assay [2], the DC50 was found to be 43 nM.

As a reminder, the IC50 is the concentration that gives 50% inhibition. For orientation: DC50 means the concentration at which degradation of the target reaches its halfway point.

(Values after patent US20240293558A1, “KRAS INHIBITOR CONJUGATES” (Erasca, Inc., priority 2021, published 2024).)
